Assay results reported in patent US20020183307A1, “Novel 1,4-benzothiazephine and 1,5-benzothiazepine compounds as inhibitors of apical sodium co-dependent bile acid transport and taurocholate uptake” (priority 2000, published 2002).

Target: T1, human IBAT (Homo sapiens, UniProt Q12908)
T1 construct: expressed in transfected cells; host or cells: Baby hamster kidney (BHK) cells, H14 clone
T1 sequence (Q12908 1-348): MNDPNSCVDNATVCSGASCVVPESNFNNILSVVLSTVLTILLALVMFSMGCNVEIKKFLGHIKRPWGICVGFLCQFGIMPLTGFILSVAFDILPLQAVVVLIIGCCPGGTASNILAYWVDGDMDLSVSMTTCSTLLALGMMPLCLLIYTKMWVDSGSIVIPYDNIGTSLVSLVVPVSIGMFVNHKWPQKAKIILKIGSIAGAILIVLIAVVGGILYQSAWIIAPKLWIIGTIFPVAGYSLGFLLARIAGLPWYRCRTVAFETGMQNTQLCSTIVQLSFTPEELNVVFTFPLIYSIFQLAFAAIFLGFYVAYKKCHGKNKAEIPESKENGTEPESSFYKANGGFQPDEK
Test: In vitro assay of compounds that inhibit IBAT-mediated uptake of [14C]-taurocholate (TC) in H14 cells
Type: cell-based
Description: In Vitro Assay of Compounds That Inhibit IBAT-mediated Uptake of [^14C]-Taurocholate (TC) in H14 Cells
Baby hamster kidney cells (BHK) transfected with the cDNA of human IBAT (Hl4 cells) are seeded in 96 well Top-Count tissue culture plates at 60,000 cells/well for assays run within 24 hours of seeding, 30,000 cells/well for assays run within 48 hours, and 10,000 cells/well for assays run within 72 hours.
On the day of assay, the cell monolayer is gently washed once with […] (Dulbecco's Modified Eagle's medium with 4.5 g/L glucose plus 0.2% (w/v) fatty acid free bovine serum albumin ((FAF)BSA). To each well […] of a two-fold concentrate of test compound in assay buffer is added along with […] of […] [^14C]-taurocholate in assay buffer (final concentration of […] [^14C]-taurocholate).
The cell culture plates are incubated 2 hours at 37° C. prior to gently washing each well twice with […] 4° C. Dulbecco's phosphate-buffered saline (PBS) containing 0.2% (w/v) (FAF)BSA. The wells are then gently washed once with […] 4° C. PBS without (FAF)BSA. To each […] of liquid, scintillation counting fluid is added.
The plates are heat sealed and shaken for 30 minutes at room temperature prior to measuring the amount of radioactivity in each well on a Packard Top-Count instrument.

[1] = Table 8, 1,4 and 1,5 benzothiazipines, additional IC50 values
[2] = Table 7, 1,5-benzothiazepines, 50% inhibitory concentrations by the biological evaluation procedures

Row | IC50 [1] | IC50 [2] | SMILES
1 | 2090 nM |  | CCCCC1(CCCC)CS(=O)(=O)c2ccc(N(C)C)cc2[C@@H](c2ccc(OCC[N+](CC)(CC)CC)cc2)N1 (racemic) [Compound 3, N-[2-[4-[3,3-Dibutyl-7-(dimethylamino)-2,3,4,5-etrahydro-1,1-dioxido-1,4-benzothiazepin-5-yl]phenoxy]ethyl]-N,N,N-triethylaminium Iodide]
2 | 74 nM |  | CCCCC1(CCCC)CS(=O)(=O)c2ccc(N(C)C)cc2[C@@H](c2ccc(OCCOCCOCC[N+](CC)(CC)CC)cc2)N1 (racemic) [Compound 4, N-[2-[2-[2-[4-[3,3-Dibutyl-7-(dimethylamino)-2,3,4,5-tetrahydro-1,1-dioxido-1 4-benzothiazepin-5-yl]phenoxy]ethoxy]ethoxy]ethoxy]-N,N,N-triethylaminium Iodide]
3 | 22 nM |  | CCCCC1(CCCC)CS(=O)(=O)c2ccc(N(C)C)cc2[C@@H](c2ccc(OCc3ccc(C[N+]45CCN(CC4)CC5)cc3)cc2)N1 (racemic) [Compound 5]
4 | 600 nM |  | CCCC[C@]1(CC)CS(=O)(=O)c2ccccc2[C@@H](c2ccccc2)N1 [Compound 1]
5 | 289 nM |  | CCCCC1(CCCC)CN(c2ccc(OC)cc2)c2cc(N(C)C)ccc2S(=O)(=O)C1 [Compound 6, 3,3-Dibutyl-2,3,4,5-tetrahydro-7-dimethylamino-5-(4′-methoxyphenyl)-1,5-benzothiazepine1,1-dioxide]
6 | 15100 nM |  | CCCCC1(CCCC)CN(c2ccc(OCC[N+](CC)(CC)CC)cc2)c2cc(N(C)C)ccc2S(=O)(=O)C1 [Compound 7]
7 | 30 nM |  | CCCCC1(CCCC)CN(c2ccc(OCc3ccc(C[N+]45CCN(CC4)CC5)cc3)cc2)c2cc(N(C)C)ccc2S(=O)(=O)C1 [Compound 9, 1-[[4-[[4-[3,3-Dibutyl-7-(dimethylamino)-2,3,4,5-tetrahydro-1,1-dioxido-1,5-benzothiazepin-5-yl]phenoxy]methyl]phenyl]methyl]-4-aza-1-azoniabicyclo[2.2.2]octane Chloride]
8 |  | 31 nM | CCCCC1(CCCC)CN(c2ccc(OCc3ccc(C[N+]45CCN(CC4)CC5)cc3)cc2)c2cc(N(C)C)ccc2S(=O)(=O)C1 [PHA00384640E]
9 |  | 26400 nM | CCCCC1(CCCC)CN(c2ccc(OCCN(CC)CC)cc2)c2cc(N(C)C)ccc2S(=O)(=O)C1 [PHA00400670]
10 |  | > 1000 nM | CCCCC1(CCCC)CN(c2ccc(OCC[N+](CC)(CC)CC)cc2)c2cc(N(C)C)ccc2S(=O)(=O)C1 [PHA00400884E]
11 |  | 289 nM | CCCCC1(CCCC)CN(c2ccc(OC)cc2)c2cc(N(C)C)ccc2S(=O)(=O)C1 [SC-86287]
12 |  | 320 nM | CCCCC1(CCCC)CN(c2ccc(OC)cc2)c2cc(F)ccc2S(=O)(=O)C1 [SC-86288]

Row | SMILES | IC50 [1] | IC50 [2]
13 | CCCCC1(CCCC)CN(c2ccc(OCCOCCOCC[N+](CC)(CC)CC)cc2)c2cc(N(C)C)ccc2S(=O)(=O)C1 [Compound 8, N-[2-[2-[2-[4-[3,3-Dibutyl-7-(dimethylamino)-2,3,4,5-tetrahydro-1,1-dioxido-1,5-benzothiazepin-5-yl]phenoxy]ethoxy]ethoxy]ethoxy]-NNN-triethylaminium Iodide] | 300 nM | 
14 | CCCCC1(CCCC)CN(c2ccc(OCCOCCOCC[N+](CC)(CC)CC)cc2)c2cc(N(C)C)ccc2S(=O)(=O)C1 [PHA00400885E] |  | 300 nM
